The values below come from paper PMC8073005, “Antifungal Activity and DNA Topoisomerase Inhibition of Hydrolysable Tannins from Punica granatum L” (International Journal of Molecular Sciences, 2021).

A word on the IC50: it is the concentration at which inhibition is half-maximal.

Test [1] concerns other genera tested (other fungi strains). Nature of the test: Agar Disk Diffusion Assay, other genera. The format is cell-based. As to the method:
The antifungal activity of pomegranate compounds was evaluated against 19 clinically isolated fungal strains, including nine belonging to Candida albicans species, two belonging to Aspergillus genus, one belonging to Cryptococcus genus, and one Saccharomyces cerevisiae. The C. albicans strains were isolated on CHROMID agar, Aspergillus and Cryptococcus genus were isolated on SDA-CAF and one Saccharomyces cerevisiae on SDA. All the isolates were confirmed by matrix-assisted laser desorption ionization (MALDI) time-of-flight mass spectrometry (TOF/MS). Strains from the American Type Culture Collection (ATCC) were included. All strains were maintained in SDB with 20% (w/v) glycerol at −80 °C until use and sub-cultured in SDA before each test.
The preliminary determination of the antifungal activity of the target compounds (punicalagin, punicalin, ellagic acid, and gallic acid) from pomegranate was carried out by means of the agar disk diffusion assay, according to the standard procedure of the Clinical and Laboratory Standards Institute, with slight modifications. Plates containing SDA were uniformly spread with 100 μL of 10^3 conidia/mL of each strain suspension. […] Disks containing fluconazole (25 μg), amphotericin B (25 μg) and DMSO (20 μL) were used as the positive and the negative control, respectively. The antifungal activity of pomegranate compounds was evaluated by measuring the diameter of the clear inhibition zone formed right around the disks after 48 h incubation at 30 ± 1 °C. The experiment was carried out in triplicate.
On the technique in general: Agar diffusion results depend on both activity and mobility in agar.

The test system of test [2] is Colletotrichum acutatum s.s. M146-2. Nature of the test: MIC, micro-spectrophotometric growth assay (phytopathogens). The test is classed as cell-based, Colletotrichum acutatum sensu stricto. The settings on record: for MIC: Colletotrichum acutatum s.s. M146-2, PDB, 24 °C, dark, imazalil at label dose, read-out: Minimum inhibitory concentration (MIC).
A further test deals with Aspergillus candidus 3. Nature of the test: MIC, broth microdilution (human pathogens). The settings on record: Aspergillus candidus 3; SDB, 30 °C, 48 h; read-out: Minimum inhibitory concentration (MIC). The test is classed as cell-based.
Another test deals with Candida zeylanoides 33. The experiment in a line: MIC, broth microdilution (human pathogens). The format is cell-based. The settings on record: Dujonia zeylanoides; Candida zeylanoides 33; SDB, 30 °C, 48 h; read-out: Minimum inhibitory concentration (MIC). A general note: Dilution methods test growth across graded concentrations, often in twofold steps.
A further test relates to Candida albicans SC 5314. The experiment in a line: MIC, broth microdilution (human pathogens). The settings on record: SC5314; Candida albicans SC 5314; SDB, 30 °C, 48 h; read-out: Minimum inhibitory concentration (MIC). The format is cell-based.
A further test relates to Candida albicans 2. Nature of the test: MIC, broth microdilution (human pathogens). The format is cell-based. The settings on record: Candida albicans 2; SDB, 30 °C, 48 h; read-out: Minimum inhibitory concentration (MIC).
For the next test, the system named is Candida strains. The experiment in a line: Agar Disk Diffusion Assay, Candida strains. The test is classed as cell-based.
The subject of another test is Aspergillus candidus 25. Nature of the test: MIC, broth microdilution (human pathogens). The test is classed as cell-based. The settings on record: Aspergillus candidus 25; SDB, 30 °C, 48 h; read-out: Minimum inhibitory concentration (MIC).
A further test has as its system Candida parapsilosis 7. The experiment in a line: MIC, broth microdilution (human pathogens). The format is cell-based. The settings on record: Lodderomyces parapsilosis; Candida parapsilosis 7; SDB, 30 °C, 48 h; read-out: Minimum inhibitory concentration (MIC).
For a further test, the system named is Cryptococcus 67. Nature of the test: MIC, broth microdilution (human pathogens). The settings on record: Cryptococcus 67; SDB, 30 °C, 48 h; read-out: Minimum inhibitory concentration (MIC). The test is classed as cell-based.
A further test relates to Candida albicans 1. Nature of the test: MIC, broth microdilution (human pathogens). The format is cell-based. The settings on record: Candida albicans 1; SDB, 30 °C, 48 h; read-out: Minimum inhibitory concentration (MIC).
For test [3], the system named is Alternaria alternata AL19. The experiment in a line: MIC, micro-spectrophotometric growth assay (phytopathogens). The settings on record: for MIC: Alternaria alternata AL19, PDB, 24 °C, dark, imazalil at label dose, read-out: Minimum inhibitory concentration (MIC). The format is cell-based.
For a further test, the system named is Candida albicans 44. The experiment in a line: MIC, broth microdilution (human pathogens). The test is classed as cell-based. The settings on record: Candida albicans 44; SDB, 30 °C, 48 h; read-out: Minimum inhibitory concentration (MIC).
The next test has as its system Candida albicans H. Nature of the test: MIC, broth microdilution (human pathogens). The format is cell-based. The settings on record: Candida albicans H; SDB, 30 °C, 48 h; read-out: Minimum inhibitory concentration (MIC).
The test system of test [4] is Cryptococcus neoformans ATCC 11240. Nature of the test: MIC, broth microdilution (human pathogens). The test is classed as cell-based. The settings on record: ATCC11240; Cryptococcus neoformans ATCC 11240; SDB, 30 °C, 48 h; read-out: Minimum inhibitory concentration (MIC).
The subject of another test is Candida albicans 41. Nature of the test: MIC, broth microdilution (human pathogens). The format is cell-based. The settings on record: Candida albicans 41; SDB, 30 °C, 48 h; read-out: Minimum inhibitory concentration (MIC).
Test [5] addresses T1, topoisomerase I from Candida albicans (Candida albicans, UniProt Q00313).
T1 sequence (Q00313 1-778): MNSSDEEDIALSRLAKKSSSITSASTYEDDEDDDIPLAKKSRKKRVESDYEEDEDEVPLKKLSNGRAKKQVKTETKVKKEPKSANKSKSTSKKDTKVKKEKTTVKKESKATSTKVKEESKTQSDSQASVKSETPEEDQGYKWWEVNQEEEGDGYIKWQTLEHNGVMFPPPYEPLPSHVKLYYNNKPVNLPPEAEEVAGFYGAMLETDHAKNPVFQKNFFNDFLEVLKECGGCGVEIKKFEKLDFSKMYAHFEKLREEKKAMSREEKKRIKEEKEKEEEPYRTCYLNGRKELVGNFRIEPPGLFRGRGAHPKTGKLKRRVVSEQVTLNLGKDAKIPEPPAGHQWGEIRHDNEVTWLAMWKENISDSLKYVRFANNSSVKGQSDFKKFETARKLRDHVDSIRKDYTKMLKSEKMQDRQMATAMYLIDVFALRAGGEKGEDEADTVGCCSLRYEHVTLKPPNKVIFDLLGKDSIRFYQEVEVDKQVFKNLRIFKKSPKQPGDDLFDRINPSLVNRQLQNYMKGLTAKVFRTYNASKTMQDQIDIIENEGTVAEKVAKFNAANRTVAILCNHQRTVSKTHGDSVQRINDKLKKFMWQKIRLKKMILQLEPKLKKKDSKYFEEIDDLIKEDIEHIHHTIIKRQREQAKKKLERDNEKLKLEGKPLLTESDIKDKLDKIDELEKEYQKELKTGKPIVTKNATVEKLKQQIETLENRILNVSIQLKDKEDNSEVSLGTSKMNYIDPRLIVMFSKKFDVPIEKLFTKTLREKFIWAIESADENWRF
The experiment in a line: Topoisomerase I supercoiled DNA relaxation inhibition. The format is biochemical. The settings on record: mean ± SD; relaxation of supercoiled pBR322; concentration range 0.001–200 μM; read-out: IC50 Value Topoisomerase I.

Test [6] concerns Saccharomyces cerevisiae 42. Nature of the test: MIC, broth microdilution (human pathogens). The format is cell-based. The settings on record: Saccharomyces cerevisiae 42; SDB, 30 °C, 48 h; read-out: Minimum inhibitory concentration (MIC).

≈ marks a conversion by molar mass, not a printed value. Where “and” joins values, the source holds several entries; their conditions need not be identical. Equal entries are not always repeated. Where two headings read alike, the source gives them in different places.

In the case of `O=c1oc2c(O)c(O)cc3c(=O)oc4c(O)c(O)cc1c4c23` [Ellagic Acid, ellagic acid], in test [1] (62.5 µg), the “share of other strains with growth inhibition from 21 to 30 mm” value is on record as 100%. The MIC was 165.4 µM (≈ 50 µg/mL) in test [2]; 165 µM (≈ 50 µg/mL) in test [2] (S.S.M1462); 662 µM (≈ 200 µg/mL) with Aspergillus candidus 3; 331 µM (≈ 100 µg/mL) in the test on Candida zeylanoides 33; 2.5 µM (≈ 0.755 µg/mL) in the test on Candida albicans SC 5314; 2.5 µM (≈ 0.755 µg/mL) in the test on Candida albicans 2. Moreover, the MIC is 662 µM (≈ 200 µg/mL) in the test on Aspergillus candidus 25; 331 µM (≈ 100 µg/mL) in the test on Candida parapsilosis 7; 662 µM (≈ 200 µg/mL) with Cryptococcus 67; 5 µM (≈ 1.51 µg/mL) in the test with Candida albicans 1; 165.4 µM and 165 µM in test [3]; 2.5 µM (≈ 0.755 µg/mL) in the test with Candida albicans 44. Further, the MIC with Candida albicans H stood at 331 µM (≈ 100 µg/mL); in test [4] it was 331 µM (≈ 100 µg/mL); in the test with Candida albicans 41, 331 µM (≈ 100 µg/mL); in test [6], 662 µM (≈ 200 µg/mL). Further, the “share of Candida strains with inhibition zone from 21 to 30 mm” value with Candida strains (25 μg) amounted to 64%. In the test on Candida strains (25 μg), the “share of Candida tested strains with growth inhibition zone from 11 to 20 mm” value was 36%. The “share of Candida strains with growth inhibition from 21 to 30 mm” value in the test on Candida strains (62.5 µg) is 73%. Also, the “antifungal activity (growth curve)” value in test [3] (A. alternata, Figure S3) is “no or little antifungal activity”. Moreover, the IC50 in [5] was 56.6 ± 1.2 µM.

As for `O=C1OC[C@H]2OC(O)[C@H](O)[C@@H](O)[C@@H]2OC(=O)c2cc(O)c(O)c(O)c2-c2c(O)c(O)c3oc(=O)c4c(c(O)c(O)c5oc(=O)c2c3c54)-c2c1cc(O)c(O)c2O` (mixture of isomers) [Punicalin, punicalin], the “share of other fungi strains with inhibition zone from 11 to 20 mm” value in [1] (100 µg) came out at 63%. This compound yielded a growth reduction in [2] (C. acutatum s.s., up to 24 h of incubation) of 83%. In addition, the MIC in [2] was 255.6 µM; in [2] (S.S.M1462), 256 µM; with Aspergillus candidus 3, 127 µM; with Candida zeylanoides 33, 127 µM; in the test with Candida albicans SC 5314, 127 µM; in the test on Candida albicans 2, 3.8 µM. Also, the MIC in the test with Aspergillus candidus 25 was 127 µM; in the test on Candida parapsilosis 7, 3.8 µM; in the test on Cryptococcus 67, 127 µM; in the test with Candida albicans 1 it was 3.8 µM; in [3] it was 255.6 µM and 256 µM; in the test with Candida albicans 44 it was 127 µM. Moreover, the MIC was 1.9 µM in the test with Candida albicans H, 1.9 µM in test [4], 127 µM in the test on Candida albicans 41 and 3.8 µM in test [6]. Further, the “share of Candida strains with inhibition zone from 11 to 20 mm” value in the test on Candida strains (100 µg) is recorded as 91%. For the same compound, the IC50 in [5] was 14.7 ± 0.9 µM.
